Earlier results on 2 molecules are cited in patent publication US5905084A, “5-HTIF -agonists effective in treating migraine” (priority 1997, dated 1999).

In one data set the test system is neurogenic inflammation. Conditions: Neurology, 43(suppl. 3), S16-S20 (1993).
For data set [1], the system named is exploratory behavior in arthritic animals. Conditions: Larsen and Arnt (1985).

For `CNS(=O)(=O)Cc1ccc2[nH]cc(CCN(C)C)c2c1.O=C(O)CCC(=O)O` [Compound I, 3-[2-(dimethylamino)ethyl]-N-methyl-1H-indole-5-methanesulfonamide butane-1,4-dioate (1:1)], in the data set with neurogenic inflammation, the neurogenic inflammation blocked result was “blocked”.

Regarding `CN(C)CCCC1(c2ccc(F)cc2)OCc2cc(C#N)ccc21` (centres unmarked) [citalopram], the exploratory behavior entry in data set [1] is recorded as “improve exploratory behavior”.
